Assay [1] concerns CHEAL (Lambsquarters, Common). In words: Postemergence herbicidal evaluation. Format: in vivo, Chenopodium album. The following applies: postemergence. Put shortly: (§1)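 ~2-wk seedlings; postemergence spray, 40 psi; vehicle 1:1 acetone:water + 0.5% Tween 20; rate ≈0.0156–0.500 kg/ha; greenhouse hold; scored 4–5 wk after treatment, 0–9 scale vs control; repeat tests averaged.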
In assay [2] the test system is IPOHE (Morningglory, Ivyleaf). Description: Postemergence herbicidal evaluation. Format: in vivo, Ipomoea hederacea. The following applies: postemergence. In short, it runs like this: as §1
Another assay relates to GALAP (Galium). In words: Preemergence herbicidal evaluation. Format: in vivo, Galium aparine. To be noted: rated 4-5 weeks after treatment. The source says: (§2) Results of herbicide evaluation are expressed on a rating scale (0-9). The scale is based upon a visual observation of plant stand, vigor, malformation, size, chlorosis and overall plant appearance as compared with a control.
(§3) The preemergence herbicidal activity of the test compounds of the present invention is exemplified by the following tests in which the seeds of a variety of monocotyledonous and dicotyledonous plants are separately mixed with potting soil and planted on top of approximately one inch of soil in separate pint cups. After planting, the cups are sprayed with the selected aqueous acetone solution containing test compound in sufficient quantity to provide the equivalent of about 0.0156 to 0.500 kg per hectare of test compound per cup. The treated cups are then placed on greenhouse benches, watered and cared for in accordance with conventional greenhouse procedures. From four to five weeks after treatment, the tests are terminated and each cup is examined and rated according to the rating system provided in Example 37.
(§4) The compounds evaluated are reported by compound number given in Example 37.

The next assay concerns ECHCG (Barnyardgrass). In words: Preemergence herbicidal evaluation. Format: in vivo, Echinochloa crus-galli. The following applies: rated 4-5 weeks after treatment. Put shortly:
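Seeds were planted in potting soil in cups, then sprayed preemergence with the test compound in aqueous acetone at about 0.0156 to 0.500 kg per hectare. Cups were kept under greenhouse conditions and visually rated 4–5 weeks after treatment on a 0–9 scale against an untreated control.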

Assay [3] has as its system GLXMAW (Soybean, Williams). Description: Preemergence herbicidal evaluation. In kind it is in vivo, Glycine max, (L.) Merr. cv Williams. The following applies: rated 4-5 weeks after treatment.
Description: as §2, §3, §4

[4] abbreviates: rate 0.1250 kg/ha, rating scale 0-9.
Setting [5] is: rate 0.2500 kg/ha, rating scale 0-9.
Where [6] appears, read: rate 0.0313 kg/ha, rating scale 0-9.
The mark [7] stands for this setting: rate 0.0625 kg/ha, rating scale 0-9.

For the compound `COC(=O)C(Cc1ccc(Cl)cc1)N1C(=O)CSC1=Nc1cc(-n2c(=O)cc(C(F)(F)F)n(C)c2=O)c(F)cc1Cl` (racemic) [Compound 77, Methyl α-(p-chlorobenzyl)-2-{{2-chloro-5-[3,6-dihydro-3-methyl-2,6-dioxo-4-(trifluoromethyl)-1(2H)-pyrimidinyl]-4-fluorophenyl}imino}-4-oxo-3-thiazolidineacetate, DL-], the CHEAL herbicidal rating in assay [1] (rate 0.0158 kg/ha) was determined as 6.0; in assay [1] (rate 0.0315 kg/ha), 9.0; in assay [1] (rate 0.0630 kg/ha) it was 9.0. Besides, the IPOHE herbicidal rating in assay [2] (rate 0.0158 kg/ha), in assay [2] (rate 0.0315 kg/ha) and in assay [2] (rate 0.0630 kg/ha) was 9.0 each time. Moreover, the “Preemergence herbicidal rating GALAP” value in the assay on GALAP (Galium) (rate 0.0156 kg/ha) turned out to be 0.0; in the assay with GALAP (Galium) (rate 0.0313 kg/ha), 0.0; with GALAP (Galium) (rate 0.0625 kg/ha), 0.0; in the assay with GALAP (Galium) (rate 0.1250 kg/ha), 1.0; in the assay on GALAP (Galium) (rate 0.2500 kg/ha) it was 1.0. The “Preemergence herbicidal rating ECHCG” value in the assay with ECHCG (Barnyardgrass) (rate 0.0156 kg/ha), in the assay with ECHCG (Barnyardgrass) (rate 0.0313 kg/ha), with ECHCG (Barnyardgrass) (rate 0.0625 kg/ha), in the assay on ECHCG (Barnyardgrass) (rate 0.1250 kg/ha) and in the assay on ECHCG (Barnyardgrass) (rate 0.2500 kg/ha) was 0.0 in each case. Moreover, the “Preemergence herbicidal rating GLXMAW” value in assay [3] (rate 0.0156 kg/ha) is on record as 0.0; in assay [3] (rate 0.0313 kg/ha) it was 0.0; in assay [3] (rate 0.0625 kg/ha), 0.0; in assay [3] (rate 0.1250 kg/ha), 0.0; in assay [3] (rate 0.2500 kg/ha) it was 1.0.

In the case of `CCOC(=O)CN1C(=O)C(Br)SC1=Nc1cc(-n2c(=O)cc(C(F)(F)F)n(C)c2=O)c(F)cc1Cl` (centres unmarked) [Compound 153, Ethyl 5-bromo-2-[{2-chloro-5-[3,6-dihydro-3-methyl-2,6-dioxo-4-(trifluoromethyl)-1(2H)-pyrimidinyl]-4-fluorophenyl}imino}-4-oxo-3-thiazolidineacetate], the “Herbicidal rating CHEAL” value in assay [1] (rate 0.0156 kg/ha) is on record as 0.0; in assay [1] (rate 0.0313 kg/ha), 1.0; in assay [1] (rate 0.0625 kg/ha), 1.0. Moreover, the “Herbicidal rating IPOHE” value in assay [2] (rate 0.0156 kg/ha) is 4.0; in assay [2] (rate 0.0313 kg/ha), 6.0; in assay [2] (rate 0.0625 kg/ha), 9.0. The “Preemergence herbicidal rating GALAP” value in the assay on GALAP (Galium) (setting [4]) amounted to 0.0; in the assay on GALAP (Galium) (setting [5]), 1.0. Also, the “Preemergence herbicidal rating ECHCG” value with ECHCG (Barnyardgrass) (setting [4]) and with ECHCG (Barnyardgrass) (setting [5]) was 0.0 in each case. The “Preemergence herbicidal rating GLXMAW” value is given as 0.0 in assay [3] (setting [4]) and 1.0 in assay [3] (setting [5]).

Take `Cn1c(C(F)(F)F)cc(=O)n(-c2cc(N=C3SCC(=O)N3Cc3cc(Cl)cc(Cl)c3)c(Cl)cc2F)c1=O` [Compound 150, 3-{4-Chloro-5-{[3-(3,5-dichlorobenzyl)-4-oxo-2-thiazolidinylidene]amino}-2-fluorophenyl}-1-methyl-6-(trifluoromethyl)-2,4(1H,3H)-pyrimidinedione]: the “Herbicidal rating CHEAL” value in assay [1] (rate 0.0156 kg/ha), in assay [1] (rate 0.0313 kg/ha) and in assay [1] (rate 0.0625 kg/ha) was 9.0 each time. Besides, the “Herbicidal rating IPOHE” value in assay [2] (rate 0.0156 kg/ha), in assay [2] (rate 0.0313 kg/ha) and in assay [2] (rate 0.0625 kg/ha) was 9.0 in each case. Also, the “Preemergence herbicidal rating GALAP” value with GALAP (Galium) (setting [6]) was 0.0; with GALAP (Galium) (setting [7]) it was 0.0; in the assay on GALAP (Galium) (setting [4]), 0.0; in the assay on GALAP (Galium) (setting [5]), 2.0. The “Preemergence herbicidal rating ECHCG” value is 0.0 with ECHCG (Barnyardgrass) (setting [6]), 0.0 in the assay on ECHCG (Barnyardgrass) (setting [7]), 2.0 in the assay with ECHCG (Barnyardgrass) (setting [4]) and 4.0 in the assay on ECHCG (Barnyardgrass) (setting [5]). For the same compound, the “Preemergence herbicidal rating GLXMAW” value in assay [3] (setting [6]) is 0.0; in assay [3] (setting [7]), 0.0; in assay [3] (setting [4]) it was 0.0; in assay [3] (setting [5]), 2.0.

With `CCN1C(=O)CSC1=Nc1cc(-n2c(=O)cc(C(F)(F)F)n(C)c2=O)c(F)cc1Cl` [Compound 159, 3-{4-Chloro-5-[(3-ethyl-4-oxo-2-thiazolidinyl-idene)amino]-2-fluorophenyl}-1-methyl-6-(trifluoromethyl)-2,4(1H,3H)-pyrimidinedione], the results for the “Herbicidal rating CHEAL” value in assay [1] (rate 0.0156 kg/ha), in assay [1] (rate 0.0313 kg/ha) and in assay [1] (rate 0.0625 kg/ha) were 3.0, 4.0 and 5.0, respectively. Moreover, the “Herbicidal rating IPOHE” value in assay [2] (rate 0.0156 kg/ha), in assay [2] (rate 0.0313 kg/ha) and in assay [2] (rate 0.0625 kg/ha) was 9.0 throughout. Also, the “Preemergence herbicidal rating GALAP” value with GALAP (Galium) (0.0156 kg/ha) is 0.0; in the assay on GALAP (Galium) (0.0313 kg/ha), 0.0; in the assay with GALAP (Galium) (0.0625 kg/ha), 1.0; in the assay with GALAP (Galium) (0.1250 kg/ha), 5.0; in the assay with GALAP (Galium) (0.2500 kg/ha) it was 5.0. The “Preemergence herbicidal rating ECHCG” value in the assay on ECHCG (Barnyardgrass) (0.0156 kg/ha) worked out at 0.0; with ECHCG (Barnyardgrass) (0.0313 kg/ha) it was 1.0; in the assay with ECHCG (Barnyardgrass) (0.0625 kg/ha) it was 0.0; in the assay with ECHCG (Barnyardgrass) (0.1250 kg/ha), 2.0; in the assay with ECHCG (Barnyardgrass) (0.2500 kg/ha), 3.0. In addition, the “Preemergence herbicidal rating GLXMAW” value in assay [3] (0.0156 kg/ha) was 1.0; in assay [3] (0.0313 kg/ha), 0.0; in assay [3] (0.0625 kg/ha), 1.0; in assay [3] (0.1250 kg/ha), 2.0; in assay [3] (0.2500 kg/ha), 3.0.

For the compound `Cn1c(C(F)(F)F)cc(=O)n(-c2cc(N=C3SCC(=O)N3Cc3ccccn3)c(Cl)cc2F)c1=O` [Compound 131], the “Herbicidal rating CHEAL” value was 3.0 in assay [1] (rate 0.0156 kg/ha), 5.0 in assay [1] (rate 0.0313 kg/ha) and 9.0 in assay [1] (rate 0.0625 kg/ha). Also, the “Herbicidal rating IPOHE” value in assay [2] (rate 0.0156 kg/ha) turned out to be 7.0; in assay [2] (rate 0.0313 kg/ha) it was 9.0; in assay [2] (rate 0.0625 kg/ha) it was 9.0. Moreover, the “Preemergence herbicidal rating GALAP” value is recorded as 0.0 with GALAP (Galium) (setting [6]), 3.0 with GALAP (Galium) (setting [7]), 2.0 in the assay on GALAP (Galium) (setting [4]) and 9.0 in the assay with GALAP (Galium) (setting [5]). The “Preemergence herbicidal rating ECHCG” value with ECHCG (Barnyardgrass) (setting [6]) was determined as 0.0; with ECHCG (Barnyardgrass) (setting [7]), 0.0; in the assay on ECHCG (Barnyardgrass) (setting [4]), 0.0; in the assay with ECHCG (Barnyardgrass) (setting [5]), 2.0. The “Preemergence herbicidal rating GLXMAW” value in assay [3] (setting [6]) amounted to 0.0; in assay [3] (setting [7]), 1.0; in assay [3] (setting [4]), 1.0; in assay [3] (setting [5]), 1.0.

For the compound `COC(=O)[C@@H](Cc1ccccc1)N1C(=O)CSC1=Nc1cc(-n2c(=O)cc(C(F)(F)F)n(C)c2=O)c(F)cc1Cl` [Compound 74, Methyl α-benzyl-2-{{2-chloro-5-[3,6-dihydro-3-methyl-2,6-dioxo-4-(trifluoromethyl)-1(2H)-pyrimidinyl]-4-fluorophenyl}imino}-4-oxo-3-thiazolidineacetate, D-], the CHEAL herbicidal rating in assay [1] (rate 0.0158 kg/ha) and in assay [1] (rate 0.0315 kg/ha) was 9.0 throughout. In addition, the IPOHE herbicidal rating in assay [2] (rate 0.0158 kg/ha), in assay [2] (rate 0.0315 kg/ha) and in assay [2] (rate 0.0630 kg/ha) was 9.0 throughout. The “Preemergence herbicidal rating GALAP” value in the assay on GALAP (Galium) (rate 0.0156 kg/ha) is 0.0; in the assay on GALAP (Galium) (rate 0.0313 kg/ha) it was 0.0; with GALAP (Galium) (rate 0.0625 kg/ha), 0.0; in the assay with GALAP (Galium) (rate 0.1250 kg/ha) it was 0.0; in the assay with GALAP (Galium) (rate 0.2500 kg/ha), 9.0. Also, the “Preemergence herbicidal rating ECHCG” value in the assay with ECHCG (Barnyardgrass) (rate 0.0156 kg/ha) amounted to 0.0; in the assay on ECHCG (Barnyardgrass) (rate 0.0313 kg/ha), 0.0; in the assay with ECHCG (Barnyardgrass) (rate 0.0625 kg/ha), 1.0; in the assay with ECHCG (Barnyardgrass) (rate 0.1250 kg/ha) it was 0.0; with ECHCG (Barnyardgrass) (rate 0.2500 kg/ha), 1.0. Also, the “Preemergence herbicidal rating GLXMAW” value in assay [3] (rate 0.0156 kg/ha) was 0.0; in assay [3] (rate 0.0313 kg/ha) it was 1.0; in assay [3] (rate 0.0625 kg/ha), 0.0; in assay [3] (rate 0.1250 kg/ha), 1.0; in assay [3] (rate 0.2500 kg/ha) it was 1.0.

For the origin of these results see patent US20020137929A1, “1 - (3-heterocyclylphenyl) isothiourea, -isourea, -guanidine and -amidine herbicidal agents” (Intellectual Property Department, BASF Aktiengesellschaft, priority 1998, published 2002).
